From patent US20240239786A1, “COMPOSITIONS AND METHODS FOR THE TREATMENT AND PREVENTION OF CANCER” (Yale University, priority 2021, published 2024)

How the values were obtained:
DNA synthesis = settings: cited from earlier work
SKOV3 cells = experiment: Clonogenic assay, SKOV3; type: cell-based; settings: DB4 at 6 μM, 14 days
Description: Cells were plated for 24 hr, pre-treated with DB4 for 1 hr, and then treated with various concentrations of olaparib for 14 days. Colonies were stained and determined for clonogenic survival.
To further substantiate the effectiveness of DB4 and mitigate the issue of off-target effects with a higher concentration range of drugs used in the MTS cytotoxicity assay, clonogenic assays were carried out to determine the long-term survival of cells in response to treatments.
The assay was conducted as described previously (Lin Z P et al., 2014, Molecular Cancer Res, 12:381-393). Cells were plated at various densities in 6-well plates in triplicate. After 24 hr of incubation, cells were treated continuously with various concentrations of olaparib, DB4, or both drugs in combination. After 12-14 days, colonies were fixed/stained with crystal violet solution and counted to determine the percentage of survival using a GelDoc imaging system with QuantityOne software (Bio-Rad, Hercules, CA).

[1] = Chemical stability of DB4 in culture medium by mass spectrometry; type: physicochemical; settings: 50 μM, 37° C., 72 hr vs 0 hr
Description: DB4 remained mostly active and intact after 72 hr in the culture medium. The dose response curve of DB4 in DNA synthesis inhibition in PEO4 cells was generated as determined by EdU flow cytometric analysis. […] PEO4 cells were treated with these media for 24 hr. The level of DNA synthesis inhibition was determined to interpolate and calculate % DB4 remaining compared with the control at 0 hr. FIG. 5B depicts representative results for remaining DB4 after DB4 (MW=496.1) was added to the culture medium at 50 μM for 0 hr, 24 hr, 48 hr, or 72 hr at 37° C. FIG. 5C depicts representative mass spectrum obtained from mass spectrometry that was run to detect the level of the 496.13 ion at 0 hr. FIG. 5D depicts representative mass spectrum obtained from mass spectrometry that was run to detect the level of the 496.13 ion at 72 hr.
To ensure that DB4 remained chemically stable, the time course study was performed by determining the potency of DB4 following a pre-incubation in the cell-free medium at 37° C. for up to 72 hr. Cells were treated for 24 hr with the medium containing pre-incubated DB4 and DNA synthesis was determined by the EdU incorporation assay.
DB4 was dissolved in DMEM medium at 50 μM and incubated for 0 hr, 24 hr, 48 hr, and 72 hr at 37° C. and flash frozen after incubation. […]

PEO1 cells = experiment: MTS cytotoxicity assay, sensitization to olaparib, PEO1; type: cell-based; settings: 30 μM, olaparib 72 hr
Description: Cells were pre-treated with 30 μM DB4 for 1 hr and then treated with various concentrations of olaparib for 72 hr. Cell survival was determined by MTS cytotoxicity assay. Data are means±SD (N=3-4). […] EOB calculation was used to quantify the synergy of the combination of DB4 and various concentrations of olaparib in PEO1 or PEO4 cells as shown in FIG. 8A. EOB>0, synergism; EOB=0, additivity; EOB<0, antagonism. […] Cells were pre-treated with 30 μM DB4-F for 1 hr and then treated with various concentrations of olaparib for 72 hr. Cell survival was determined by MTS cytotoxicity assay. Data are means±SD (N=3-4). […] EOB calculation was used to quantify the synergy of the combination of DB4-F and various concentrations of olaparib in PEO1 or PEO4 cells as shown in FIG. 8B. EOB>0, synergism; EOB=0, additivity; EOB<0, antagonism. […] Cell survival was determined by MTS cytotoxicity assay. […] Caspase 3/7 activity was expressed as RLU per μg/μl protein. […] Caspase 3/7 activity was expressed as RLU per μg/μl protein. […] Cells were treated and caspase 3/7 activity was measured as described in FIG. 8G and FIG. 8H.
It was also examined whether DB4 sensitized BRCA-wild type EOC cells to a PARP inhibitor. BRCA2-mutated PEO1 and BRCA2-wild type PEO4 cells were treated with DB4 at 30 μM in combination with various concentrations of olaparib and cell survival was determined. […]

NC(=S)NN=Cc1ncccc1N [triapine, 3-aminopyridine-2-carboxaldehyde-thiosemicarbazone, reference compound]
time to halt DNA synthesis (DNA synthesis): ≤ 1 h

C=CCn1c(SCc2cccc(Cl)c2)nnc1C1CCN(Cc2nc3ccccc3s2)CC1 [DB4, 2-[(4-{4-allyl-5-[(3-chlorobenzyl)thio]-4H-1,2,4-triazol-3-yl}-1-piperidinyl)methyl]-1,3-benzothiazole]
clonogenic survival in the presence of olaparib (SKOV3 cells): effectively reduced the clonogenic survival | level of DB4 by mass spectrometry [1]: remained similar to that of the 0 hr control | sensitization to olaparib (cell survival) (PEO1 cells): minimal effects
